Measured values published in patent US9321740B2, “Tetrazole compounds and methods of making and using same” (Zafgen, Inc., priority 2011, dated 2016).

Molecular target: T1, recombinant human MetAP2 (Homo sapiens, UniProt P50579)
T1 construct: Flag; made in house; host or cells: Sf9 insect cells
Assay: Inhibition of recombinant human MetAP2 activity (MAS substrate, amino acid oxidase/Amplex red fluorescence)
Assay type: biochemical
Details: manganese enzyme, 30 minutes at 25° C., pH 7.5, 0.75 mM MAS substrate, 1% DMSO; read-out: Activity (MetAP2 IC50 class)
Description: Compounds are tested for their capacity to inhibit recombinant human MetAP2 activity using the following assay.
Human recombinant Flag-MetAP2 expressed in Sf9 cells followed by affinity purification and EDTA treatment to remove endogenous active site cation was dialysed against MnCl2 to produce the manganese enzyme used in the assay. The assay was carried out for 30 minutes at 25° C. in 50 mM HEPES buffer containing 100 mM NaCl, pH 7.5 the presence of 0.75 mM Methionine-Alanine-Serine (MAS) substrate and 50 μg/mL amino acid oxidase using a dilution of purified MetAP2 giving approximately 50,000 RFU control activity. Cleavage of the substrate by MetAP2 and oxidation of free methionine by amino acid oxidase was detected and quantified using fluorescence generated by Amplex red (10-acetyl-3,7-dihydroxyphenoxazine) in combination with horseradish peroxidase which detects H2O2 released during the oxidation step. The fluorescent signal was detected using a multiwell fluorimeter. Compounds were diluted in DMSO prior to addition to assay buffer, the final DMSO concentration in the assay being 1%.
The IC50 is defined as the concentration at which a given compound achieves 50% inhibition of control. IC50 values are calculated using the XLfit software package (version 2.0.5).

T1 sequence (P50579 whole entry): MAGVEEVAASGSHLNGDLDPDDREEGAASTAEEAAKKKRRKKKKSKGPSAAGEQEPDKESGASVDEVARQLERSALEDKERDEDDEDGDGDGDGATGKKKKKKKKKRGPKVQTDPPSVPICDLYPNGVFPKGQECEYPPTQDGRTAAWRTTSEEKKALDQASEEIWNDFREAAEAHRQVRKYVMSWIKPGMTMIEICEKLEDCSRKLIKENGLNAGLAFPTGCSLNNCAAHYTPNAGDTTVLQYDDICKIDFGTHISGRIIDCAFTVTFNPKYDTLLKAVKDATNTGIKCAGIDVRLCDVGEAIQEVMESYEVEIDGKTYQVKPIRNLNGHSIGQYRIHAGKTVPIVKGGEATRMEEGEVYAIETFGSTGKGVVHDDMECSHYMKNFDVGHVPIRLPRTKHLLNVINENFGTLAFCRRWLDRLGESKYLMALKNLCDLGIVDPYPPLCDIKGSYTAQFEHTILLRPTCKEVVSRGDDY

Row | IC50 [nM] | Compound
1 | < 1000 | O=S(=O)(Nc1cccc(C2CC2)c1-c1nnn[nH]1)c1ccccc1 [N-[3-Cyclopropyl-2-(1H-tetrazol-5-yl)-phenyl]-benzenesulfonamide]
2 | > 1000 | O=S(=O)(Nc1ccc2c(c1-c1nnn[nH]1)CCCC2)c1ccccc1 [N-[1-(1H-Tetrazol-5-yl)-5,6,7,8-tetrahydronaphthalen-2-yl]-benzenesulfonamide]
3 | > 1000 | O=S(=O)(Nc1cccc(Br)c1-c1nnn[nH]1)c1ccccc1 [N-[3-Bromo-2-(1H-tetrazol-5-yl)-phenyl]-benzenesulfonamide]
4 | > 1000 | Cc1cccc(NS(=O)(=O)c2ccccc2)c1-c1nnn[nH]1 [N-[3-Methyl-2-(1H-tetrazol-5-yl)-phenyl]-benzenesulfonamide]
5 | < 1000 | COc1cccc(NS(=O)(=O)c2ccccc2)c1-c1nnn[nH]1 [N-[3-Methoxy-2-(1H-tetrazol-5-yl)-phenyl]-benzenesulfonamide]
